According to article PMC6105524 (Lipids, 2018):
Where two headings read alike, the source gives them in different places.

Tests used:
[1] = format: in vivo, human; details: for F (turnover of esterified n-3 HUFA in plasma): Jsyn / amount in plasma total lipids; for Time first detected in plasma: after beginning infusion; for Total esterified amount in plasma at 7 h: 7 h of infusion
[2] = Plasma unlabeled fatty acid concentrations; format: in vivo, human
[3] = compartmental modeling, humans; ref Pawlosky et al. 2001; cited from earlier work
[4] = ref Domenichiello et al. 2014, Domenichiello et al. 2016, Metherel et al. 2018, cited from earlier work
[5] = subject S01, 8 h iv infusion of d5-ALA-albumin 0.78 mg/kg BW/hr
[6] = subject S01, k1 x unesterified ALA 2.52 nmol/mL
[7] = subject S02, 8 h iv infusion of d5-ALA-albumin 0.78 mg/kg BW/hr
[8] = subject S02, k1 x unesterified ALA 4.74 nmol/mL
[9] = subject S01, unlabeled, mean of 17 time points, low linoleate diet
[10] = subject S02, unlabeled, mean of 17 time points, low linoleate diet

CC/C=C\C/C=C\C/C=C\C/C=C\C/C=C\CCCCCCCC(=O)O [TPAn-3, tetracosapentaenoic acid]
Jsyn (whole-body synthesis-secretion rate) ([1]; both subjects): 0.5 to 0.6 nmol/min | Smax (maximal first derivative of plasma total amount time-course of newly synthesized d5-n-3 HUFA) ([1]; subject S01): 0.39 nmol/min | k1 (synthesis-secretion coefficient) ([1]; subject S01): 0.23 mL/min | Time at Smax [1, 5]: 98 min | F (turnover of esterified n-3 HUFA in plasma) ([1]; subject S01): 7.4e-05 min⁻¹ | Jsyn (whole body synthesis-secretion rate from circulating unesterified 18:3n-3) [1, 6]: 0.58 nmol/min | Smax (maximal first derivative of plasma total amount time-course of newly synthesized d5-n-3 HUFA) ([1]; subject S02): 0.22 nmol/min | k1 (synthesis-secretion coefficient) ([1]; subject S02): 0.12 mL/min | Time at Smax [1, 7]: 150 min | F (turnover of esterified n-3 HUFA in plasma) ([1]; subject S02): 0.0001 min⁻¹ | Jsyn (whole body synthesis-secretion rate from circulating unesterified 18:3n-3) [1, 8]: 0.58 nmol/min | Fatty acid concentration in plasma total lipids (mean) [2, 9]: 2.1 nmol/mL | Fatty acid concentration in plasma total lipids (mean) [2, 10]: 2.0 nmol/mL

CCCCCCCC/C=C\CCCCCCCCCCCCCC(=O)O [24:1n-9]
Fatty acid concentration in plasma total lipids (mean) [2, 9]: 48.1 nmol/mL | Fatty acid concentration in plasma total lipids (mean) [2, 10]: 21.8 nmol/mL

CCCCCC/C=C/CCCCCCCCCC(=O)O [18:1n-7]
Fatty acid concentration in plasma total lipids (mean) [2, 9]: 98.0 nmol/mL | Fatty acid concentration in plasma total lipids (mean) [2, 10]: 104 nmol/mL

CCCCCCCC/C=C\CCCCCCCC(=O)O [18:1n-9]
Fatty acid concentration in plasma total lipids (mean) ([2]; in vivo): 896 nmol/mL

CC/C=C\C/C=C\C/C=C\C/C=C\C/C=C\C/C=C\CCC(=O)O [DHA, Docosahexaenoic acid]
Smax (maximal first derivative of plasma total amount time-course of newly synthesized d5-n-3 HUFA) ([1]; subject S01): 0.67 nmol/min | k1 (synthesis-secretion coefficient) ([1]; subject S01): 0.39 mL/min | Time at Smax [1, 5]: 109 min | F (turnover of esterified n-3 HUFA in plasma) ([1]; subject S01): 2.6e-06 min⁻¹ | Jsyn (whole body synthesis-secretion rate from circulating unesterified 18:3n-3) [1, 6]: 0.99 nmol/min | Smax (maximal first derivative of plasma total amount time-course of newly synthesized d5-n-3 HUFA) ([1]; subject S02): 0.21 nmol/min | k1 (synthesis-secretion coefficient) ([1]; subject S02): 0.12 mL/min | Time at Smax [1, 7]: 125 min | F (turnover of esterified n-3 HUFA in plasma) ([1]; subject S02): 3.7e-06 min⁻¹ | Jsyn (whole body synthesis-secretion rate from circulating unesterified 18:3n-3) [1, 8]: 0.56 nmol/min | Rate of mass flow from immediate precursor [3]: 0.464 µmol/day | Whole body synthesis-secretion rate of DHA from circulating ALA ([4]; rats consuming a high ALA diet): 1.5 µmol/day | Whole body synthesis-secretion rate of DHA from circulating ALA ([4]; rats consuming a low ALA containing diet): 0.045 µmol/day

CCCCC/C=C\C/C=C\C/C=C\CCCCC(=O)O [18:3n-6]
Fatty acid concentration in plasma total lipids (mean) [2, 9]: 15.3 nmol/mL | Fatty acid concentration in plasma total lipids (mean) [2, 10]: 12.3 nmol/mL

CCCCC/C=C\C/C=C\C/C=C\C/C=C\CCCCCC(=O)O [22:4n-6]
Fatty acid concentration in plasma total lipids (mean) [2, 9]: 9.6 nmol/mL | Fatty acid concentration in plasma total lipids (mean) [2, 10]: 8.5 nmol/mL

[2H]C([2H])([2H])C([2H])([2H])/C=C\C/C=C\C/C=C\C/C=C\C/C=C\CCCCCC(=O)O [d5-22:5n-3]
Time first detected in plasma [1]: 40 min | Time for which plasma amount increased before leveling off ([1]; both subjects): up to 4 h | Time to achieve steady-state plasma concentration of esterified d5-HUFA ([1]; both subjects): about 5 hr | Smax (maximal first derivative of plasma total amount time-course of newly synthesized d5-n-3 HUFA) ([1]; subject S01): 2.43 nmol/min | Total esterified amount in plasma at 7 h ([1]; subject S01): 580 nmol | Time at Smax [1, 5]: 94 min | Smax (maximal first derivative of plasma total amount time-course of newly synthesized d5-n-3 HUFA) ([1]; subject S02): 4.14 nmol/min | Total esterified amount in plasma at 7 h ([1]; subject S02): 920 nmol | Time at Smax [1, 7]: 156 min

CCCCCCCCCCCCCCCCCC(=O)O [18:0]
Fatty acid concentration in plasma total lipids (mean) [2, 9]: 367 nmol/mL | Fatty acid concentration in plasma total lipids (mean) [2, 10]: 374 nmol/mL

CCCCCCCCCCCCCCCC(=O)O [16:0]
Fatty acid concentration in plasma total lipids (mean) [2, 9]: 1265 nmol/mL | Fatty acid concentration in plasma total lipids (mean) [2, 10]: 1152 nmol/mL

tetracosahexaenoic acid [THA]
Jsyn (whole-body synthesis-secretion rate) ([1]; both subjects): 0.5 to 0.6 nmol/min | Smax (maximal first derivative of plasma total amount time-course of newly synthesized d5-n-3 HUFA) ([1]; subject S01): 0.41 nmol/min | k1 (synthesis-secretion coefficient) ([1]; subject S01): 0.24 mL/min | Time at Smax [1, 5]: 102 min | F (turnover of esterified n-3 HUFA in plasma) ([1]; subject S01): 5.8e-05 min⁻¹ | Jsyn (whole body synthesis-secretion rate from circulating unesterified 18:3n-3) [1, 6]: 0.61 nmol/min | Smax (maximal first derivative of plasma total amount time-course of newly synthesized d5-n-3 HUFA) ([1]; subject S02): 0.17 nmol/min | k1 (synthesis-secretion coefficient) ([1]; subject S02): 0.10 mL/min | Time at Smax [1, 7]: 125 min | F (turnover of esterified n-3 HUFA in plasma) ([1]; subject S02): 0.0001 min⁻¹ | Jsyn (whole body synthesis-secretion rate from circulating unesterified 18:3n-3) [1, 8]: 0.46 nmol/min | Fatty acid concentration in plasma total lipids (mean) [2, 9]: 2.8 nmol/mL | Fatty acid concentration in plasma total lipids (mean) [2, 10]: 1.5 nmol/mL

CCCCCCCCCCCCCCCCCCCCCCCC(=O)O [24:0]
Fatty acid concentration in plasma total lipids (mean) [2, 9]: 21.5 nmol/mL | Fatty acid concentration in plasma total lipids (mean) [2, 10]: 15.2 nmol/mL

CCCCC/C=C\C/C=C\C/C=C\CCCCCCC(=O)O [20:3n-6]
Fatty acid concentration in plasma total lipids (mean) [2, 9]: 98.2 nmol/mL | Fatty acid concentration in plasma total lipids (mean) [2, 10]: 79.1 nmol/mL

CCCCC/C=C\C/C=C\C/C=C\C/C=C\C/C=C\CCC(=O)O [22:5n-6]
Fatty acid concentration in plasma total lipids (mean) [2, 9]: 16.8 nmol/mL | Fatty acid concentration in plasma total lipids (mean) [2, 10]: 8.0 nmol/mL

[2H]C([2H])([2H])C([2H])([2H])/C=C\C/C=C\C/C=C\C/C=C\C/C=C\CCCC(=O)O [d5-20:5n-3]
Time at Smax ([1]; both subjects): about 200 min | Time to achieve steady-state plasma concentration of esterified d5-HUFA ([1]; both subjects): about 5 hr | Smax (maximal first derivative of plasma total amount time-course of newly synthesized d5-n-3 HUFA) ([1]; subject S01): 3.23 nmol/min | Smax (maximal first derivative of plasma total amount time-course of newly synthesized d5-n-3 HUFA) ([1]; subject S02): 2.29 nmol/min

CCCCCCCCCCCCCCCCCCCCCC(=O)O [22:0]
Fatty acid concentration in plasma total lipids (mean) [2, 9]: 30.5 nmol/mL | Fatty acid concentration in plasma total lipids (mean) [2, 10]: 17.4 nmol/mL

[2H]C([2H])([2H])C([2H])([2H])/C=C\C/C=C\C/C=C\CCCCCCCC(=O)O [d5-18:3n-3, d5–17, 17, 18, 18, 18-18:3n-3, reference compound]
Plasma concentration of unesterified d5-18:3n-3 at 6 h ([1]; in vivo): 4.37 µM | Time to reach steady-state plasma concentration of infused unesterified tracer ([1]; in vivo): about 10 min

CCCCCCCC/C=C\CCCCCCCCCC(=O)O [20:1n-9]
Fatty acid concentration in plasma total lipids (mean) [2, 9]: 7.8 nmol/mL | Fatty acid concentration in plasma total lipids (mean) [2, 10]: 9.3 nmol/mL

[2H]C([2H])([2H])C([2H])([2H])/C=C\C/C=C\C/C=C\C/C=C\C/C=C\C/C=C\CCC(=O)O [d5-22:6n-3]
Time first detected in plasma [1]: 40 min | Time for which plasma amount increased before leveling off ([1]; both subjects): up to 4 h | Time to achieve steady-state plasma concentration of esterified d5-HUFA ([1]; both subjects): about 5 hr | Smax (maximal first derivative of plasma total amount time-course of newly synthesized d5-n-3 HUFA) ([1]; subject S01): 0.67 nmol/min | Total esterified amount in plasma at 7 h ([1]; subject S01): 148 nmol | Smax (maximal first derivative of plasma total amount time-course of newly synthesized d5-n-3 HUFA) ([1]; subject S02): 0.21 nmol/min | Total esterified amount in plasma at 7 h ([1]; subject S02): 44 nmol

CC/C=C\C/C=C\C/C=C\C/C=C\C/C=C\CCCCCC(=O)O [DPAn-3, docosapentaenoic acid]
Smax (maximal first derivative of plasma total amount time-course of newly synthesized d5-n-3 HUFA) ([1]; subject S01): 2.43 nmol/min | k1 (synthesis-secretion coefficient) ([1]; subject S01): 1.44 mL/min | Time at Smax [1, 5]: 94 min | F (turnover of esterified n-3 HUFA in plasma) ([1]; subject S01): 8.8e-05 min⁻¹ | Jsyn (whole body synthesis-secretion rate from circulating unesterified 18:3n-3) [1, 6]: 3.62 nmol/min | Smax (maximal first derivative of plasma total amount time-course of newly synthesized d5-n-3 HUFA) ([1]; subject S02): 4.14 nmol/min | k1 (synthesis-secretion coefficient) ([1]; subject S02): 2.32 mL/min | Time at Smax [1, 7]: 156 min | F (turnover of esterified n-3 HUFA in plasma) ([1]; subject S02): 0.00019 min⁻¹ | Jsyn (whole body synthesis-secretion rate from circulating unesterified 18:3n-3) [1, 8]: 11.0 nmol/min | Rate of mass flow from immediate precursor [3]: 0.075 µmol/day

CC/C=C\C/C=C\C/C=C\CCCCCCCC(=O)O [ALA, α-linolenic acid]
Plasma concentration of unesterified unlabeled ALA ([2]; subject S01): 2.52 µM | Fatty acid concentration in plasma total lipids (mean) [2, 9]: 24.3 nmol/mL | Plasma concentration of unesterified unlabeled ALA ([2]; subject S02): 4.74 µM | Fatty acid concentration in plasma total lipids (mean) [2, 10]: 33.5 nmol/mL

CCCCC/C=C\C/C=C\CCCCCCCCCC(=O)O [20:2n-6]
Fatty acid concentration in plasma total lipids (mean) [2, 9]: 8.6 nmol/mL | Fatty acid concentration in plasma total lipids (mean) [2, 10]: 13.6 nmol/mL

CCCCCC/C=C\CCCCCCCC(=O)O [16:1n-7]
Fatty acid concentration in plasma total lipids (mean) [2, 9]: 153 nmol/mL | Fatty acid concentration in plasma total lipids (mean) [2, 10]: 91.9 nmol/mL

CC/C=C\C/C=C\C/C=C\C/C=C\C/C=C\CCCC(=O)O [EPA, eicosapentaenoic acid]
Smax (maximal first derivative of plasma total amount time-course of newly synthesized d5-n-3 HUFA) ([1]; subject S01): 3.23 nmol/min | k1 (synthesis-secretion coefficient) ([1]; subject S01): 1.91 mL/min | Time at Smax [1, 5]: 190 min | F (turnover of esterified n-3 HUFA in plasma) ([1]; subject S01): 7.7e-05 min⁻¹ | Jsyn (whole body synthesis-secretion rate from circulating unesterified 18:3n-3) [1, 6]: 4.81 nmol/min | Smax (maximal first derivative of plasma total amount time-course of newly synthesized d5-n-3 HUFA) ([1]; subject S02): 2.29 nmol/min | k1 (synthesis-secretion coefficient) ([1]; subject S02): 1.29 mL/min | Time at Smax [1, 7]: 215 min | F (turnover of esterified n-3 HUFA in plasma) ([1]; subject S02): 0.00015 min⁻¹ | Jsyn (whole body synthesis-secretion rate from circulating unesterified 18:3n-3) [1, 8]: 6.09 nmol/min | Rate of mass flow from immediate precursor [3]: 0.021 µmol/day

CCCCCCCCCCCCCC(=O)O [14:0]
Fatty acid concentration in plasma total lipids (mean) [2, 9]: 43.9 nmol/mL | Fatty acid concentration in plasma total lipids (mean) [2, 10]: 36.8 nmol/mL
